The numbers were not newly measured in patent publication US20240307316A1, “ANTIOXIDANT AND OXYGEN-RELEASING LIGNIN COMPOSITES TO ACCELERATE WOUND HEALING” (Board of Supervisors of Louisiana State University and …, priority 2023, published 2024), which cites them from elsewhere.

Read-outs that look alike come from different tables or passages of the source.

For orientation: solubility means how much of the substance goes into solution per volume. On to `[Ca+2].[O-][O-]` [CaO2, Calcium peroxide], for which the solubility limit is on record as 1.65 mg/mL. Further, the solubility (at 20° C.) was 1.65 mg/mL. In addition, in the data set with 3T3 FBs, the concentrations exhibiting cytotoxicity entry was “higher than 10 mg/mL”.
For the compound `[Mg+2].[O-][O-]` [MgO2, magnesium peroxide], the solubility (at 18° C.) is on record as 0.86 mg/mL.
